Assay results published in publication PMC11491487 (Nature Communications, 2024).
“And” between values parts separate entries of the source, which are not always exact repeats. Equal values may be shown once. Read-outs that look alike come from different tables or passages of the source.

Assays:
[1] = target: chiRyR-I4657M/G4819E (Oryctolagus cuniculus, UniProt P11716, C4657M/F4564Y/G4819E/L4792S/R4563K); assay: biochemical; format: biochemical, rabbit; settings: for [3H]ryanodine binding (B/Bmax): 1 μM TET
[2] = target: T1, chiRyR (Oryctolagus cuniculus, UniProt P11716, C4657I/F4564Y/L4792S/R4563K); assay: biochemical; format: biochemical, rabbit
[3] = target: T1, chiRyR; assay: cell-based; set-up: species or system rabbit
[4] = target: rRyR1 (Oryctolagus cuniculus, UniProt P11716); assay: time-lapse [Ca2+]ER fluorescence assay, HEK293 cells; format: cell-based, rabbit
[5] = target: Sf RyR (Spodoptera frugiperda, UniProt A0A4P8L6R5); assay: as above; format: cell-based
[6] = Ca2+-dependent [3H]ryanodine binding, mean ± SD, n=4
[7] = Ca2+-dependent [3H]ryanodine binding, mean ± SD, n=4, read-out: EC50 values for Ca2+

With `[Ca+2]` [Ca2+] the IC50 [1, 6] was 590 ± 190 µM, the EC50 [1, 7] was 4.4 ± 2.4 µM and the IC50 [2, 6] was 670 ± 370 µM. It also gave an EC50 [2, 7] of 5 ± 1.1 µM.

In the case of `CNC(=O)c1cc(C#N)cc(C)c1NC(=O)c1cc(Cn2nnc(C(F)(F)F)n2)nn1-c1ncccc1Cl` [TET, tetraniliprole], the EC50 [1] is reported as 87.8 ± 6.4 µM, the “[3H]ryanodine binding (B/Bmax)” value ([1]; pCa 3.52) is reported as 0.1264 and 0.1119 and 0.1409 and 0.1015 and the “[3H]ryanodine binding (B/Bmax)” value ([1]; pCa 3.89) is reported as 0.1367 and 0.1222 and 0.1015. For the same compound, the “[3H]ryanodine binding (B/Bmax)” value ([1]; pCa 4.5) was 0.1326 and 0.1367 and 0.1347 and 0.1885, the “[3H]ryanodine binding (B/Bmax)” value ([1]; pCa 5) was 0.172 and 0.0953 and 0.1139 and 0.1243 and the “[3H]ryanodine binding (B/Bmax)” value ([1]; pCa 5.43) was 0.04765 and 0.0663 and 0.05179 and 0.06008. The EC50 [2] was 0.0111 ± 0.0009 µM, the “promotion of [3H]ryanodine binding” value ([2]; 1 μM TET) was “promote” and the “[3H]ryanodine binding (B/Bmax)” value ([2]; 1 μM TET, pCa 2.01) was 0.5896 and 0.5427 and 0.6286 and 0.5623. For the same compound, the “[3H]ryanodine binding (B/Bmax)” value ([2]; 1 μM TET, pCa 2.54) was 0.4881 and 0.5388 and 0.5232 and 0.4217, the “[3H]ryanodine binding (B/Bmax)” value ([2]; 1 μM TET, pCa 3.01) was 0.2889 and 0.3787 and 0.4022 and 0.2616 and the “[3H]ryanodine binding (B/Bmax)” value ([2]; 1 μM TET, pCa 3.52) was 0.2967 and 0.3397 and 0.4256 and 0.2811. The “[3H]ryanodine binding (B/Bmax)” value ([2]; 1 μM TET, pCa 3.89) was 0.2811 and 0.328 and 0.3319 and 0.2616, the “[3H]ryanodine binding (B/Bmax)” value ([2]; 1 μM TET, pCa 4.5) was 0.2889 and 0.2655 and 0.3319 and 0.285 and the “[3H]ryanodine binding (B/Bmax)” value ([2]; 1 μM TET, pCa 5) was 0.3163 and 0.2538 and 0.3046 and 0.2694. The “[3H]ryanodine binding (B/Bmax)” value ([2]; 1 μM TET, pCa 5.43) was 0.3436 and 0.285 and 0.2889 and 0.367, the “[3H]ryanodine binding (B/Bmax)” value ([2]; 1 μM TET, pCa 6.01) was 0.2772 and 0.2421 and 0.3319 and 0.3085 and the “[3H]ryanodine binding (B/Bmax)” value ([2]; 1 μM TET, pCa 6.55) was 0.3358 and 0.246 and 0.3826. The “[3H]ryanodine binding (B/Bmax)” value ([2]; 1 μM TET, pCa 6.98) was 0.2616 and 0.2694 and 0.2382 and 0.2108, the EC50 [3] was 0.0461 µM and the F/F0 ([3]; TET 1e-5 uM) was 0.9259 and 0.9674 and 0.9677. For the same compound, the F/F0 ([3]; TET 0.001 uM) was 0.7877 and 0.806 and 0.7759, the F/F0 ([3]; TET 0.01 uM) was 0.2917 and 0.2699 and 0.2537 and the F/F0 ([3]; TET 0.1 uM) was 0.2632 and 0.2374 and 0.2313. For the same compound, the F/F0 ([3]; TET 0.5 uM) was 0.2569 and 0.2462 and 0.2329, the F/F0 ([3]; TET 1 uM) was 0.2399 and 0.24 and 0.2303 and the F/F0 ([3]; TET 10 uM) was 0.2639 and 0.2436 and 0.2393. For the same compound, the F/F0 ([3]; TET 50 uM) was 0.3123 and 0.2617 and 0.3022, the F/F0 ([4]; TET 0.01 uM) was 0.9832 and 0.9899 and 0.9753 and the F/F0 ([4]; TET 0.1 uM) was 0.9793 and 0.9852 and 0.9641. For the same compound, the F/F0 ([4]; TET 0.3 uM) was 0.9696 and 0.952 and 0.9539, the F/F0 ([4]; TET 1 uM) was 0.9135 and 0.9295 and 0.9254 and the F/F0 ([4]; TET 3 uM) was 0.8107 and 0.8058 and 0.7756. For the same compound, the F/F0 ([4]; TET 10 uM) was 0.34 and 0.3602 and 0.3556, the F/F0 ([4]; TET 30 uM) was 0.3168 and 0.2562 and 0.2448 and the F/F0 ([4]; TET 100 uM) was 0.2045 and 0.2471 and 0.2529. For the same compound, the EC50 ([4]; diamide insecticides, n = 3, read-out: EC50) was 7.6 µM, the EC50 [5] was 0.175 µM and the F/F0 ([5]; TET 1e-5 uM) was 0.9606 and 0.9752 and 0.9813. For the same compound, the F/F0 ([5]; TET 0.001 uM) was 1.004 and 1.002 and 1.001, the F/F0 ([5]; TET 0.01 uM) was 0.3097 and 0.3094 and 0.2868 and the F/F0 ([5]; TET 0.1 uM) was 0.2582 and 0.2663 and 0.2776. The F/F0 ([5]; TET 0.5 uM) was 0.268 and 0.2944 and 0.2596, the F/F0 ([5]; TET 1 uM) was 0.2734 and 0.2934 and 0.2867 and the F/F0 ([5]; TET 10 uM) was 0.2774 and 0.2809 and 0.2932. For the same compound, the F/F0 ([5]; TET 50 uM) was 0.2939 and 0.2698 and 0.3129.
